US10774112B2, “Biomimetic peptide and biodegradable delivery platform for the treatment of angiogenesis- and lymphangiogenesis-dependent diseases” (THE JOHNS HOPKINS UNIVERSITY, priority 2013, dated 2020)

Legend:
[1] = system: hepatocyte growth factor (HGF) signaling; assay: HGF signaling in vitro in LEC; format: cell-based; settings: FIG. 6
[2] = system: human umbilical vein endothelial cells (HUVEC); assay: Adhesion assay (RT-CIM), HUVEC; format: cell-based; settings: FIG. 1
Experimental: Similar to the migration assays, the inhibition activity of the peptide in cellular adhesion was assessed using the RT-CIM technology. In this case, 25,000 cells/well were plated in 16 wells E-plates (Roche, Basel Switzerland) in the presence or absence of the peptide. The adhesion was monitored over time (3 hours) by measuring changes in the electrical impedance, which is a direct measure of the cells adhering on the electrodes. Assays were performed in at least two independent replicates and each replicate was performed using two experimental duplicates.

[3] = system: triple-negative breast cancer cell line SUM149; assay: Proliferation assay (WST-1), SUM149; format: cell-based; settings: in vitro; FIG. 7
Experimental: (§1) A colorimetric based proliferation assay using WST-1 (Roche, 11644807001) proliferation reagent was carried out using HREC cells, HUVEC cells, and the breast cancer cells MDA-MB-231, MCF-7, and SUM149. 2000 cells/well were plated in 96-well plates and allowed to adhere overnight. On the following day, the media was exchanged with fully supplemented media containing peptides or equivalent DMSO vehicle for the controls. Three days later, the media containing the peptides was replaced with serum-free EBM-2 media containing WST-1 reagent and the plates were incubated for four hours as per the manufacturer's recommendations. Changes in color, due to the formazan dye resulted from the cleavage of the tetrazolium salt WST-1 by the mitochondrial succinate-tetrazolium reductase, were read on a Victor V fluorescence plate reader (Perkin Elmer, Mass.) by measuring the absorbance at 450 nm. Dose response curves of percent live cells (in comparison to untreated cells, but incubated in complete media with 0.2% DMSO) were created. Assays were performed in at least two independent replicates and each replicate was performed using three experimental triplicates.

[4] = system: microvascular endothelial cell (MEC); assay: MEC tube formation assay; format: cell-based; settings: 25 μM peptide; FIG. 3 C-D
neovascularization = assay: Neovascularization in a rabbit model; format: in vivo; settings: day 34 following intravitreal injection into rabbit eyes; FIG. 26
[5] = system: MDA-MB-231 orthotopic tumors; assay: MDA-MB-231 orthotopic tumor xenografts in SCID mice; format: in vivo; settings: 33 days, 20 mg of SP2043/kg, intraperitoneal injection, FIG. 9
Experimental: Orthotopic breast tumors were initiated in SCID mice using human triple-negative breast cancer cells MDA-MB-231. 2×10^6 cells per 100 μL aliquot of single cell suspension were injected in the breast mammary fat pad. Tumors reached volumes of 75-100 mm^3 in approximately 14-21 days. Mice were randomized and arranged in groups (8 mice per group) with similar tumor volumes (no statistical difference among averages) and treatment was commenced. […] Tumors were measured every fourth day using calipers and the tumor volume was calculated using the formula V=ab^2/2, where “a” is the larger and “b” is the smaller diameter.

[6] = system: insulin growth factor 1 (IGF1) signaling; assay: IGF1 signaling in vitro in LEC; format: cell-based; settings: FIG. 6
c-Met = assay: Phosphorylation of c-Met in vivo; settings: FIG. 10
[7] = Accumulation in tumor and organs after systemic intravenous injection; format: in vivo; settings: systemically intravenously injected; FIG. 31
lymphangiogenesis = assay: Lymphangiogenesis in vivo (LYVE-1 staining); settings: FIG. 11
[8] = system: choroidal neovascularization; assay: Laser induced choroidal neovascularization (CNV) model; format: in vivo, mice
Experimental: Mouse Model of Choroidal Neovascularization (CNV).
Laser photocoagulation-induced rupture of Bruch's membrane was used to generate CNV. Briefly, 4-5 week old female C57BL/6J mice were anesthetized with xylazine hydrochloride (10 mg/kg) and ketamine hydrochloride (50 mg/kg) and the pupils were dilated with 1% tropicamide (Alcon Labs, Inc., Fort Worth, Tex., USA). Three burns of 532-nm diode laser photocoagulation (75 μm spot size, 0.1 s duration, 120 mW) were delivered to each retina using the slit lamp delivery system of an OcuLight GL Photocoagulator (Index, Mountain View, Calif., USA) and a hand-held cover slide as a contact lens. Burns were performed in the 9, 12 and 3 o'clock positions of the posterior pole of the retina. Production of a bubble at the time of laser photocoagulation, which indicates rupture of Bruch's membrane, is an important factor in obtaining CNV, so only burns in which a bubble was produced were included in the study. Treatments were begun seven days after laser photocoagulation and included intravitreous injections of 0.1% of SP2043 (SEQ ID NO: 1) (1 μg in a volume of 1 μL), 1% ([…] in a volume of 1 μL of SP2043 (SEQ ID NO: 1)) or vehicle under a dissecting microscope with a Harvard Pump Microinjection System (Harvard Apparatus, Holliston, Mass.) and pulled glass micropipettes. Some mice were euthanized for baseline measurement. Fourteen days after laser, the remaining mice were used to measure the amount of CNV at Bruch's membrane rupture sites. Two weeks after rupture of Bruch's membrane, mice were anesthetized and perfused with fluorescein-labeled dextran (2×10^6 average mol wt, Sigma-Aldrich, St. Louis, Mo., USA) and choroidal flat mounts were prepared as described previously. Briefly, the eyes were removed, fixed for 1 h in 10% phosphate-buffered formalin, and the cornea and lens were removed. […] Flat mounts were examined by fluorescence microscopy using an Axioskop microscope (Zeiss, Thornwood, N.Y., USA) and images were digitized using a 3 CCD color video camera (IK-TU40A, Toshiba, Tokyo, Japan) and a frame grabber. […]

[9] = system: lymphatic endothelial cell (LEC); assay: LEC tube formation assay; format: cell-based; settings: FIG. 5
[10] = system: hepatocyte growth factor (HGF) signaling; assay: HGF signaling in vitro in MEC; format: cell-based; settings: FIG. 6
[11] = system: human umbilical vein endothelial cells (HUVEC); assay: Proliferation assay (WST-1), HUVEC; format: cell-based; settings: FIG. 1
Experimental: as §1

[12] = system: insulin growth factor 1 (IGF1) signaling; assay: IGF1 signaling in vitro in MEC; format: cell-based; settings: FIG. 6

LRRFSTAPFAFIDINDVINF (Artificial sequence based on human Collagen Type IV protein) [SP2043]
HGF signaling in LEC [1]: inhibit | adhesion of HUVEC [2]: inhibit | proliferation of SUM149 [3]: inhibit | MEC tube formation [4]: inhibit | neovascularization in a rabbit model (neovascularization): Inhibition | inhibition of tumor growth [5]: about 82% | IGF1 signaling in LEC [6]: inhibit | phosphorylation of c-Met in vivo (c-Met): inhibit | accumulation in tumor and other organs [7]: accumulated in tumor as well as other organs | lymphangiogenesis as seen by LYVE-1 staining (lymphangiogenesis): inhibited | effect in combination with other anti-angiogenesis agents, such as aflibercept ([8]; laser-induced choroidal neovascularization model in mice, FIG. 28): increased effect | neovascularization in laser induced CNV model ([8]; mouse, FIGS. 13A-B): inhibited | potency in laser induced CNV model compared with aflibercept ([8]; mouse, FIGS. 13A-B): more potently than aflibercept | LEC tube formation [9]: inhibit | HGF signaling in MEC [10]: inhibit | proliferation of HUVEC [11]: inhibit | IGF1 signaling in MEC [12]: inhibit
